From patent US9493833B1, “Methods for preventing induced synthesis of proteasomes in human cells” (THE REGENTS OF THE UNIVERSITY OF CALIFORNIA, priority 2009, dated 2016)
Where a SMILES comes first, the peptide text is derived from it. The star is where a group is joined. Cbz = O=C(OCc1ccccc1)*

Tests used:
[1] = after administration; cited from earlier work
[2] = tested on: PSM genes (PSMA7, PSMB4, PSMB7, PSMC1, PSMC4, PSMD1, PSMD12); test: mRNA levels of representative PSM genes by quantitative RT-PCR in LNCaP and HT-29 cells treated with proteasome inhibitors or MLN4924; assay type: cell-based, human; settings: 10 hrs, normalized to GAPDH, DMSO set to 1
Experimental: The human prostate cancer LNCaP and colon cancer HT29 cell lines were incubated with different proteasome inhibitors (MG132, YU101, and bortezomib) or the Nedd8 pathway inhibitor MLN4924 (Soucy et al., 2009, Nature, 458, 732-736). Prostate cancer LNCaP and colon cancer HT-29 cells were treated with the indicated concentrations of proteasome inhibitors (MG132, YU101, and Bortezomib) or the Nedd8 pathway inhibitor (MLN4924) for 10 hrs, and mRNA levels of representative PSM genes were analyzed by quantitative RT-PCR (FIGS. 1A-1C). The values were normalized to GAPDH and for each cell line the DMSO treated sample was set to 1. Error bars denote SD (n=3). […] MLN4924 works by inhibiting the Nedd8-activating enzyme, the result of which is the accumulation of cullin-RING ligase (CRL) substrates (Soucy et al., 2009).
(§1) RNA was isolated using the RNeasy kit (Qiagen). cDNA was prepared using the Superscript III first strand synthesis kit (Invitrogen) according to the manufacturer's recommendations. Quantitative PCR (qPCR) was performed using the SYBR GreenER supermix (Invitrogen).

[3] = target: T1, proteasome (chymotryptic site) (Homo sapiens, UniProt P20618+P28074); test: Proteasome activity recovery assay in HT29 cells after drug wash-out; assay type: cell-based
T1 construct: endogenous in cells; host or cells: HT29 human colon cancer cells, treated intact; activity measured in freeze-thaw lysate
Experimental: Cells were frozen at different time points as indicated and were used for proteasome activity assays as described herein. For each time point, the results are normalized to DMSO-treated control in the case of hatched lines and to CHX-treated control in the case of solid lines. Error bars denote SD (n=3). […] The results were normalized to DMSO-treated control for each cell type. Error bars denote S.E.M. (n=2). […] The next day, the cells were treated with indicated concentrations of YU101 and the pan-caspase inhibitor Z-VAD-FMK, and further incubated for 72 hrs. The cell viability was then assessed using the CellTiter-Glo method (FIG. 12A). The results were normalized to DMSO-treated control which was set to 100% in each case. Error bars denote S.E.M. (n=2). […] The cell lysates were used for immunoblotting to detect the levels of Nrf1 (with the antibody raised against N-terminus) and cleaved caspase-3. β-actin protein levels were used as loading control. […] The cells were then washed with PBS thrice and allowed to recover in fresh medium. At definite time points, the cells were freeze-thawed in TE buffer (20 mM Tris pH 8, 5 mM EDTA) and subsequently used for measuring proteasome activity as described previously (Demo et al., 2007).

PSM genes [4] = test: PSM gene mRNA by quantitative RT-PCR in LNCaP cells treated with MG132 and HDAC inhibitors; assay type: cell-based, human; settings: 10 hrs; for MG132-mediated upregulation of representative PSM genes: MG132 1 μM + TSA 1 μM or MG132 1 μM + SAHA 1 μM; for steady-state PSM gene expression: TSA 1 μM or SAHA 5 μM alone
Experimental: (§2) LNCaP cells were subjected to treatment with one of MG132 (1 μM), TSA (1 μM), SAHA (5 μM), MG132 (1 μM)+TSA (1 μM), or MG132 (1 μM)+SAHA (1 μM) for 10 hrs and the RNA from these cells was used for quantitative RT-PCR to assess the mRNA levels of representative PSM genes (FIG. 5A). The values were normalized to GAPDH and the DMSO-treated sample was set to 1. A representative experiment performed in duplicates is shown. MDA-MB-231 cells were treated with different agents at the same concentrations as above (except MG132 which was used at 5 μM) for 48 hrs after which the cells were used for cell-titer glo assay to assess cell viability. Data from an experiment performed in quadruplicates is shown (FIG. 5B). LNCaP cells transfected with 8×ARE-SV40-Luc construct alone (control) or co-transfected with Flag-Nrf1 were further treated with different agents as indicated (FIG. 10). pRL-TK renilla luciferase expression construct was used as a transfection control for normalization. Sixteen hours later, the cells were harvested and used for Luciferase assay.
as §1

MDA-MB-231 cells = test: Cell-titer glo cell viability, MG132 combined with TSA or SAHA; assay type: cell-based, human; settings: MDA-MB-231, MG132 5 μM combined with TSA or SAHA, 48 hrs
Experimental: as §2
Cells in 96-well plates were treated with different agents as required and cell viability was assessed using the Cell-Titer Glo kit (G7572; Promega) according to the protocol recommended by the manufacturer. By employing a luminescence read-out, this kit quantifies the level of ATP which is proportional to the number of viable cells.

[5] = tested on: anti-oxidant response elements (8×AREs); test: 8×ARE-SV40-Luc luciferase reporter assay in LNCaP cells; assay type: cell-based, human; settings: for luciferase activity (8×ARE reporter) in combination with MG132: TSA or SAHA added with MG132, 16 hours
Experimental: TSA and SAHA were assayed using a luciferase reporter construct. The luciferase reporter was driven by a promoter harboring multimerized anti-oxidant response elements (8×AREs) and was transfected into LNCaP cells.
as §2
(§3) Cells were transiently transfected with the firefly (promoter reporters) and renilla luciferase (pRL-TK; Promega) constructs along with effector plasmid as required. After harvesting the cells, luciferase assays were performed using the Dual Luciferase reporter assay system (E1910; Promega) according to the instructions from the manufacturer. The firefly luciferase activity was normalized to renilla luciferase activity for all experiments.

PSMA4 ARE = test: 3×PSMA4-ARE-Luc / 3×PSMA4-mutARE-Luc luciferase assay in LNCaP cells; assay type: cell-based, human; settings: for luciferase activity (3×PSMA4-mutARE-Luc, AREs mutated) / luciferase activity (3×PSMA4-ARE-Luc): LNCaP; for luciferase activity (3×PSMA4-ARE-Luc): versus DMSO-treated / vector control, MG132 12 hrs
Experimental: (§4) Sequence alignment of the genomic region close to the transcription start site (indicated by +1) of the PSMB6 gene in mouse and human. The putative ARE sequences and the start codon are marked as shown (FIG. 6). WT and Nrf1^−/− MEFs were transfected with the PSMB6-Luc construct and 24 hrs post-transfection, the cells were treated with the indicated concentration of MG132 for 12 hrs after which luciferase assays were performed as described herein (FIG. 7). Error bars denote SD (n=3). […] LNCaP cells were transiently transfected with the indicated reporter constructs along with either a vector control or Flag-Nrf1 expression construct. Forty-eight hours (hrs) after transfection, the cells were further incubated with the indicated concentration of MG132 for 12 hrs after which luciferase assays were performed as described herein (FIG. 9). Error bars denote SD (n=3).
as §3

murine PSMB6 promoter = test: PSMB6-Luc promoter-reporter luciferase assay in MEFs; assay type: cell-based, mouse; settings: WT MEFs, MG132 12 hrs
Experimental: as §4, §3

PSM genes [6] = test: mRNA levels of representative PSM genes by quantitative RT-PCR in MEFs (WT, Nrf1−/−, Nrf2−/−; retroviral transduction); assay type: cell-based, mouse; settings: 10 hrs
Experimental: Specifically, MEFs of different genotypes (WT, Nrf1^−/−, and Nrf2^−/−) were treated for 10 hrs with MG132 as indicated (FIG. 2A), and the cell lysates were used for immunoblotting to detect protein levels of Nrf1 (with the antibody raised against the N-terminus) and Nrf2. β-actin protein levels were used as loading control. RNA from MEFs under the same treatment conditions as above was used for quantitative RT-PCR to assess the mRNA levels of representative PSM genes (FIGS. 2B-2C), The values were normalized to GAPDH and the DMSO treated WT sample was set to 1. Error bars denote SD (n=3).
Nrf1^−/− MEFs were transduced with retrovirus expressing one of Flag-Nrf1, Flag-Nrf1-HA or vector control and 72 hrs later treated with MG132 for 10 hrs as indicated. The cell lysates were used for immunoblotting to detect the levels of exogenous Nrf1 by using tag-specific antibodies (FIG. 3A). β-actin protein levels were used as loading control. RNA from Nrf1^−/− MEFs under the same viral transduction and treatment conditions as above was used for quantitative RT-PCR to assess the mRNA levels of representative PSM genes (FIG. 3B). The values were normalized to GAPDH and the vector-transduced DMSO-treated sample was set to 1. Error bars denote SD (n=3).
WT and Nrf1^−/− MEFs were transduced with retrovirus expressing sh-Nrf1 or vector control and 72 hrs later treated with MG132 for 10 hrs as indicated. […] RNA from MEFs under the same viral transduction and treatment conditions as above was used for quantitative RT-PCR to assess the mRNA levels of representative PSM genes (FIG. 4B). […]
as §1

Molecule: CC(C)C[C@H](NC(=O)[C@H](Cc1ccccc1)NC(=O)c1cnccn1)B(O)O [bortezomib]
- clearance from the patients' blood [1]: rapidly cleared from the patients' blood within the first hour
- mRNA levels of PSM genes [2]: robustly induce mRNA levels of several PSM genes
- inhibition at 0.04 µM ([3]; HT-29, HT29, 1 hr, MG132 2 μM, YU101 100 nM, Bortezomib 40 nM): 80 to 90%

Molecule: O=C(CCCCCCC(=O)Nc1ccccc1)NO [SAHA, suberoylanilide hydroxamic acid]
- MG132-mediated upregulation of representative PSM genes (PSM genes [4]): reproducibly inhibited the MG132-mediated upregulation of representative PSM genes
- steady-state PSM gene expression (PSM genes [4]): little effect on steady-state PSM gene expression
- apoptosis / cell viability in combination with MG132 (MDA-MB-231 cells): enhanced apoptosis (decreased viability)
- luciferase activity (8×ARE reporter) in combination with MG132 [5]: basal levels of luciferase activity were observed

Molecule: CC(C)C[C@@H](C=O)NC(=O)[C@H](CC(C)C)NC(=O)[C@H](CC(C)C)NC(=O)OCc1ccccc1 [MG132] (Cbz-Leu-Leu-Leu-aldehyde)
- luciferase activation (3×PSMA4-ARE-Luc) in cells overexpressing Flag-Nrf1 (PSMA4 ARE; LNCaP with Flag-Nrf1, plus MG132): further enhanced
- luciferase activity (3×PSMA4-mutARE-Luc, AREs mutated) (PSMA4 ARE): neither MG132 nor overexpressed Flag-Nrf1 induced the synthetic promoter construct
- luciferase activity (3×PSMA4-ARE-Luc) (PSMA4 ARE): an increase in luciferase activity was observed when compared to DMSO-treated control
- luciferase activity (PSMB6 promoter-reporter) (murine PSMB6 promoter): dose dependent increase in luciferase activity
- mRNA levels of PSM genes [2]: robustly induce mRNA levels of several PSM genes
- luciferase expression (8×ARE reporter) ([5]; MG132 alone versus untreated cells): luciferase expression was increased compared to non-test (untreated) cells
- inhibition at 2 µM ([3]; HT-29, read-out: inhibition of the chymotryptic site): 80 to 90%
- mRNA levels of PSM genes after MG132 (PSM genes [6]; Nrf1−/− MEFs): severely blunted in their ability to upregulate PSM genes
- mRNA levels of PSM genes after MG132 (PSM genes [6]; Nrf2−/− MEFs): induced mRNA levels of PSM genes
- mRNA levels of PSM genes after MG132 (PSM genes [6]; WT MEFs): induced mRNA levels of PSM genes

Molecule: CC(C)C[C@H](NC(=O)[C@H](CCc1ccccc1)NC(=O)CN1CCOCC1)C(=O)N[C@@H](Cc1ccccc1)C(=O)N[C@@H](CC(C)C)C(=O)[C@@]1(C)CO1 [carfilzomib]
- clearance from the patients' blood [1]: rapidly cleared from the patients' blood within the first hour

Molecule: CC(/C=C/C(=O)NO)=C\[C@@H](C)C(=O)c1ccc(N(C)C)cc1 [TSA, trichostatin A]
- MG132-mediated upregulation of representative PSM genes (PSM genes [4]): reproducibly inhibited the MG132-mediated upregulation of representative PSM genes
- steady-state PSM gene expression (PSM genes [4]): little effect on steady-state PSM gene expression
- apoptosis / cell viability in combination with MG132 (MDA-MB-231 cells): enhanced apoptosis (decreased viability)
- luciferase activity (8×ARE reporter) in combination with MG132 [5]: basal levels of luciferase activity were observed

B1: Flag-Nrf1: human Nrf1 with N-terminal 3×FLAG tag, expressed from pMSCV-hyg retroviral vector (protein, UniProt Q14494 1-772, looked up)
Endoplasmic reticulum …: MLSLKKYLTEGLLQFTILLSLIGVRVDVDTYLTSQLPPLREIILGPSSAYTQTQFHNLRNTLDGYGIHPKSIDLDNYFTARRLLSQVRALDRFQVPTTEVNAWLVHRDPEGSVSGSQPNSGLALESSSGLQDVTGPDNGVRESETEQGFGEDLEDLGAVAPPVSGDLTKEDIDLIDILWRQDIDLGAGREVFDYSHRQKEQDVEKELRDGGEQDTWAGEGAEALARNLLVDGETGESFPAQVPSGEDQTALSLEECLRLLEATCPFGENAEFPADISSITEAVPSESEPPALQNNLLSPLLTGTESPFDLEQQWQDLMSIMEMQAMEVNTSASEILYSAPPGDPLSTNYSLAPNTPINQNVSLHQASLGGCSQDFLLFSPEVESLPVASSSTLLPLAPSNSTSLNSTFGSTNLTGLFFPPQLNGTANDTAGPELPDPLGGLLDEAMLDEISLMDLAIEEGFNPVQASQLEEEFDSDSGLSLDSSHSPSSLSSSEGSSSSSSSSSSSSSSASSSASSSFSEEGAVGYSSDSETLDLEEAEGAVGYQPEYSKFCRMSYQDPAQLSCLPYLEHVGHNHTYNMAPSALDSADLPPPSALKKGSKEKQADFLDKQMSRDEHRARAMKIPFTNDKIINLPVEEFNELLSKYQLSEAQLSLIRDIRRRGKNKMAAQNCRKRKLDTILNLERDVEDLQRDKARLLREKVEFLRSLRQMKQKVQSLYQEVFGRLRDENGRPYSPSQYALQYAGDGSVLLIPRTMADQQARRQERKPKDRRK
modifications: N-terminal 3xFLAG tag
notes: human Nrf1 with N-terminal 3×FLAG tag, expressed from pMSCV-hyg retroviral vector
- luciferase activity (3×PSMA4-mutARE-Luc, AREs mutated) (PSMA4 ARE): neither MG132 nor overexpressed Flag-Nrf1 induced the synthetic promoter construct
- luciferase activity (3×PSMA4-ARE-Luc) (PSMA4 ARE): activated this synthetic promoter construct
